Test results published in PubChem BioAssay (NCI).
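Protocol summary: plate cells (96-well), add compound at 5 concentrations, incubate 48 h, interpolate endpoints linearly. TGI marks complete inhibition of growth.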

Key:
Assay in all cases: inhibition of tumour cell growth, NCI panel, 48 h
[1] = test system: A498 renal
[2] = test system: NCI-H23 lung
[3] = test system: SNB-19 CNS
[4] = test system: M14 melanoma
[5] = test system: RXF 393 renal
[6] = test system: KM20L2 colon
[7] = test system: HL-60(TB) leukemia
[8] = test system: DMS 114 small cell lung
[9] = test system: M19-MEL melanoma
[10] = test system: UO-31 renal
[11] = test system: TK-10 renal
[12] = test system: DMS 273 small cell lung
[13] = test system: HOP-18 NSCLC
[14] = test system: U251 CNS
[15] = test system: SW-620 colon
[16] = test system: DLD-1 colon
[17] = test system: NCI-H522 lung
[18] = test system: NCI-H460 lung
[19] = test system: CCRF-CEM leukemia
[20] = test system: EKVX NSCLC
[21] = test system: HOP-92 NSCLC
[22] = test system: CAKI-1 renal
[23] = test system: UACC-62 melanoma
[24] = test system: COLO 205 colon
[25] = test system: SF-539 CNS
[26] = test system: OVCAR-8 ovarian
[27] = test system: HOP-62 NSCLC
[28] = test system: XF 498 CNS
[29] = test system: HCT-15 colon
[30] = test system: SK-MEL-28 melanoma
[31] = test system: SK-OV-3 ovarian
[32] = test system: LOX IMVI melanoma
[33] = test system: A549 NSCLC
[34] = test system: HT29 colon
[35] = test system: IGROV1 ovarian
[36] = test system: SF-268 CNS
[37] = test system: SK-MEL-5 melanoma
[38] = test system: RPMI-8226 leukemia
[39] = test system: 786-0 renal
[40] = test system: MALME-3M melanoma
[41] = test system: SF-295 CNS
[42] = test system: LXFL 529 NSCLC
[43] = test system: NCI-H226 lung
[44] = test system: OVCAR-3 ovarian
[45] = test system: SK-MEL-2 melanoma
[46] = test system: OVCAR-4 ovarian
[47] = test system: KM12 colon
[48] = test system: HCC-2998 colon
[49] = test system: K-562 leukemia
[50] = test system: HCT-116 colon
[51] = test system: UACC-257 melanoma
[52] = test system: MOLT-4 leukemia
[53] = test system: SR leukemia
[54] = test system: ACHN renal
[55] = test system: SN12C renal
[56] = test system: OVCAR-5 ovarian

Cc1nc2ccccc2c(=O)n1/N=C(\N=Nc1ccccc1Cl)c1ccccc1
TGI [1]: > 100 µM
TGI [2]: > 100 µM
TGI [3]: > 100 µM
TGI [4]: 97.7 µM
TGI [5]: 85.3 µM
TGI [6]: 48.7 µM
TGI [7]: 38.3 µM
TGI [8]: 37.8 µM
TGI [9]: 67.2 µM
TGI [10]: > 100 µM
TGI [11]: > 100 µM
TGI [12]: > 100 µM
TGI [13]: > 100 µM
TGI [14]: > 100 µM
TGI [15]: 63.9 µM
TGI [16]: > 100 µM
TGI [17]: 60.9 µM
TGI [18]: > 100 µM
TGI [19]: 55.2 µM
TGI [20]: 78.3 µM
TGI [21]: > 100 µM
TGI [22]: 43 µM
TGI [23]: 46.6 µM
TGI [24]: 49.2 µM
TGI [25]: 43.1 µM
TGI [26]: > 100 µM
TGI [27]: > 100 µM
TGI [28]: 45.7 µM
TGI [29]: > 100 µM
TGI [30]: > 100 µM
TGI [31]: > 100 µM
TGI [32]: 97.9 µM
TGI [33]: > 100 µM
TGI [34]: 47.6 µM
TGI [35]: 38.9 µM
TGI [36]: > 100 µM
TGI [37]: 41.9 µM
TGI [38]: 49.2 µM
TGI [39]: 36.7 µM

O=C(/C=N/O)Nc1ccc(Cl)c(I)c1
TGI [2]: 42.3 µM
TGI [3]: 83.9 µM
TGI [4]: 43.7 µM
TGI [40]: 64.2 µM
TGI [5]: 46.7 µM
TGI [6]: > 100 µM
TGI [7]: 54.1 µM
TGI [8]: 50 µM
TGI [9]: 60.9 µM
TGI [10]: 33.1 µM
TGI [41]: 94.8 µM
TGI [11]: > 100 µM
TGI [42]: 42.1 µM
TGI [43]: 17.8 µM
TGI [12]: 41.9 µM
TGI [44]: 60.3 µM
TGI [45]: 31.3 µM
TGI [46]: > 100 µM
TGI [14]: 39.4 µM
TGI [47]: 68.3 µM
TGI [15]: > 100 µM
TGI [48]: 33.7 µM
TGI [16]: > 100 µM
TGI [49]: > 100 µM
TGI [17]: 34.6 µM
TGI [18]: 47.2 µM
TGI [19]: 94.8 µM
TGI [20]: 63.9 µM
TGI [50]: 25.5 µM
TGI [51]: > 100 µM
TGI [22]: 45.2 µM
TGI [52]: 56.5 µM
TGI [23]: 35.4 µM
TGI [24]: 31.7 µM
TGI [26]: > 100 µM
TGI [27]: 70.7 µM
TGI [28]: 64.8 µM
TGI [29]: 63.9 µM
TGI [30]: 72.6 µM
TGI [53]: 61.2 µM
TGI [31]: 56 µM
TGI [54]: 85.2 µM
TGI [55]: 63.9 µM
TGI [32]: 31.4 µM
TGI [33]: 94 µM
TGI [34]: > 100 µM
TGI [35]: 39.2 µM
TGI [56]: 62.2 µM
TGI [36]: 69.2 µM
TGI [37]: 35.2 µM
TGI [38]: 77.8 µM
TGI [39]: 88.4 µM
